1 compound from patent publication US10301690B2, “Streptomyces filamentosus variant and method for producing daptomycin using same” (priority 2013, dated 2019) can be followed below.

The assay relates to Staphylococcus aureus. The assay can be described thus: Agar-well method: growth inhibition of the indicator strain. Type of assay: cell-based. Conditions: 130 μl in agar well, read-out: Radius of inhibition zone. Here is the method:
A parent strain, streptomyces filamentosus ATCC 31568 was cultured by slant culture at 30° C. for 12 days to collect spores, and then the spores were suspended in a physiological saline, followed by serial dilution of 10^−2, 10^−3, and 10^−4, and plating on plate media. After pre-incubation at 30° C. for 2 hours, the plates were irradiated for 118 seconds in a glove box placed at a distance of 65 cm from two 20 W UV bulbs of 280 nm wavelength. In this regard, the death rate was 99.9%. […] Colonies that survived on the agar plates at 30° C. for 6 days were collected, followed by seed culture and fermentation culture according to a method of the following Example 4. Fermentation was performed using a 500 ml-baffled flask in a shaking incubator under conditions of 30° C., 260 rpm for 7 days.
After completion of the culture, the culture broth was centrifuged. An agar-well method which is a biological detection method was used in order to examine growth inhibition of an indicator strain, Staphylococcus aureus. The agar-well method was applied to the analysis, because this method is an easy and simple method with lower errors, compared to other methods. This method is based on a principle that a diffusion rate is determined by a difference in a concentration gradient upon diffusion of a sample on an agar gel, and the radius of inhibition zone for a predetermined time is known to be proportional to the log of the concentration value. Based on this principle, antibiotic concentrations in unknown samples can be measured. This method was performed by the following procedure: before a trypticase soy broth agar medium solidified, the indicator strain Staphylococcus aureus was added thereto and uniformly suspended therein. The medium was poured into a […] and allowed to solidify. Next, wells were punched into the agar using a stainless steel borer having a diameter of 5 mm, and agar in the well was suctioned by vacuum aspiration. The amount of the sample in the agar well was 130 μl, and a control group daptomycin was prepared and used in an amount of 0, 50, 100, 200, 300, and 1000 μg/ml.

What is called zone of inhibition is the extent of the growth-free halo in a diffusion test.

`CCCCCCCCCC(=O)N[C@@H](Cc1c[nH]c2ccccc12)C(=O)N[C@H](CC(N)=O)C(=O)N[C@@H](CC(=O)O)C(=O)N[C@@H]1C(=O)NCC(=O)N[C@@H](CCCN)C(=O)N[C@@H](CC(=O)O)C(=O)N[C@H](C)C(=O)N[C@@H](CC(=O)O)C(=O)NCC(=O)N[C@H](CO)C(=O)N[C@@H]([C@H](C)CC(=O)O)C(=O)N[C@@H](CC(=O)c2ccccc2N)C(=O)O[C@@H]1C` [Daptomycin, daptomycin]: the zone of inhibition at 50 µg/mL (Daptomycin control 0.05 mg/ml) came to 8.6 mm. In addition, the zone of inhibition at 100 µg/mL (Daptomycin control 0.10 mg/ml) was determined as 10.6 mm. Besides, the zone of inhibition at 200 µg/mL (Daptomycin control 0.20 mg/ml) worked out at 12 mm. In addition, where the note is “Daptomycin control 0.30 mg/ml”, the zone of inhibition at 300 µg/mL stood at 13.2 mm. For the same compound, under “Daptomycin control 1.00 mg/ml”, the zone of inhibition at 1000 µg/mL was found to be 16 mm.
